Data: patent publication US20230121313A1 (priority 2019, published 2023)

Test system: patients with treatment-resistant depression (TRD)
Assay: Adverse events, phase 2 dose-response study in TRD
Type: in vivo, human
Details: for Dissociation, number of participants / Dissociative disorder, % of participants / Dissociative disorder, number of participants / Dizziness, % of participants / Dizziness, number of participants / Dysgeusia, % of participants / Dysgeusia, number of participants / Feeling abnormal, % of participants / Feeling abnormal, number of participants / Headache, % of participants / Headache, number of participants / Hypersomnia, % of participants / Hypersomnia, number of participants / Hypertension, number of participants / Hypoesthesia oral, % of participants / Hypoesthesia oral, number of participants / Insomnia, number of participants / Nasal discomfort, number of participants / Nausea, % of participants / Nausea, number of participants / Oropharyngeal pain, number of participants / Polyuria, number of participants / Sedation, % of participants / Sedation, number of participants / Throat irritation, % of participants / Throat irritation, number of participants / Total with events, % of participants / Total with events, number of participants / Tunnel vision, number of participants / Vertigo, % of participants / Vertigo, number of participants / Vision blurred, number of participants / Dissociation, % of participants / Hypertension, % of participants / Insomnia, % of participants / Nasal discomfort, % of participants / Oropharyngeal pain, % of participants / Polyuria, % of participants / Tunnel vision, % of participants / Vision blurred, % of participants: double-blind
Protocol: Adverse events were monitored throughout the study. Other safety assessments (i.e., laboratory tests, vital signs, physical examination) were performed at pre-specified time points. Vital signs, the Clinician Administered Dissociative States Scale (CADSS; Bremner, “Measurement of dissociative states with the clinician-administered dissociative states scale (CADSS)”, J. Traumatic Stress, 1998, 11(1):125-136), and the 4-item positive symptom subscale from the Brief Psychiatric Rating Scale (BPRS; Overall, “The Brief Psychiatric Rating Scale. Psychological Reports”, 1962, 10:799-812) were assessed pre-dose, at 40 minutes, and 2 hours post-dose.
Safety data were analyzed in Period 1, Period 2, double-blind, and open-label data sets, for all subjects receiving at least 1 dose of study medication.

CN[C@]1(c2ccccc2Cl)CCCCC1=O [esketamine, (S)-2-(2-chlorophenyl)-2-(methylamino)cyclohexanone]
Dissociation, number of participants (esketamine 28 mg, N = 19): 0
Dissociative disorder, % of participants (esketamine 28 mg, N = 19): (11) %
Dissociative disorder, number of participants (esketamine 28 mg, N = 19): 2
Dizziness, % of participants (esketamine 28 mg, N = 19): (21) %
Dizziness, number of participants (esketamine 28 mg, N = 19): 4
Dysgeusia, % of participants (esketamine 28 mg, N = 19): (11) %
Dysgeusia, number of participants (esketamine 28 mg, N = 19): 2
Feeling abnormal, % of participants (esketamine 28 mg, N = 19): (11) %
Feeling abnormal, number of participants (esketamine 28 mg, N = 19): 2
Headache, % of participants (esketamine 28 mg, N = 19): (32) %
Headache, number of participants (esketamine 28 mg, N = 19): 6
Hypersomnia, % of participants (esketamine 28 mg, N = 19): (11) %
Hypersomnia, number of participants (esketamine 28 mg, N = 19): 2
Hypertension, number of participants (esketamine 28 mg, N = 19): 0
Hypoesthesia oral, % of participants (esketamine 28 mg, N = 19): (5) %
Hypoesthesia oral, number of participants (esketamine 28 mg, N = 19): 1
Insomnia, number of participants (esketamine 28 mg, N = 19): 0
Nasal discomfort, number of participants (esketamine 28 mg, N = 19): 0
Nausea, % of participants (esketamine 28 mg, N = 19): (11) %
Nausea, number of participants (esketamine 28 mg, N = 19): 2
Oropharyngeal pain, number of participants (esketamine 28 mg, N = 19): 0
Polyuria, number of participants (esketamine 28 mg, N = 19): 0
Sedation, % of participants (esketamine 28 mg, N = 19): (5) %
Sedation, number of participants (esketamine 28 mg, N = 19): 1
Throat irritation, % of participants (esketamine 28 mg, N = 19): (5) %
Throat irritation, number of participants (esketamine 28 mg, N = 19): 1
Total with events, % of participants (esketamine 28 mg, N = 19): (58) %
Total with events, number of participants (esketamine 28 mg, N = 19): 11
Tunnel vision, number of participants (esketamine 28 mg, N = 19): 0
Vertigo, % of participants (esketamine 28 mg, N = 19): (11) %
Vertigo, number of participants (esketamine 28 mg, N = 19): 2
Vision blurred, number of participants (esketamine 28 mg, N = 19): 0
Dissociation, % of participants (esketamine 56 mg, N = 20): (35) %
Dissociation, number of participants (esketamine 56 mg, N = 20): 7
Dissociative disorder, % of participants (esketamine 56 mg, N = 20): (5) %
Dissociative disorder, number of participants (esketamine 56 mg, N = 20): 1
Dizziness, % of participants (esketamine 56 mg, N = 20): (40) %
Dizziness, number of participants (esketamine 56 mg, N = 20): 8
Dysgeusia, % of participants (esketamine 56 mg, N = 20): (15) %
Dysgeusia, number of participants (esketamine 56 mg, N = 20): 3
Feeling abnormal, % of participants (esketamine 56 mg, N = 20): (5) %
Feeling abnormal, number of participants (esketamine 56 mg, N = 20): 1
Headache, % of participants (esketamine 56 mg, N = 20): (15) %
Headache, number of participants (esketamine 56 mg, N = 20): 3
Hypersomnia, number of participants (esketamine 56 mg, N = 20): 0
Hypertension, % of participants (esketamine 56 mg, N = 20): (10) %
Hypertension, number of participants (esketamine 56 mg, N = 20): 2
Hypoesthesia oral, % of participants (esketamine 56 mg, N = 20): (20) %
Hypoesthesia oral, number of participants (esketamine 56 mg, N = 20): 4
Insomnia, % of participants (esketamine 56 mg, N = 20): (10) %
Insomnia, number of participants (esketamine 56 mg, N = 20): 2
Nasal discomfort, % of participants (esketamine 56 mg, N = 20): (10) %
Nasal discomfort, number of participants (esketamine 56 mg, N = 20): 2
Nausea, % of participants (esketamine 56 mg, N = 20): (20) %
Nausea, number of participants (esketamine 56 mg, N = 20): 4
Oropharyngeal pain, % of participants (esketamine 56 mg, N = 20): (5) %
Oropharyngeal pain, number of participants (esketamine 56 mg, N = 20): 1
Polyuria, % of participants (esketamine 56 mg, N = 20): (10) %
Polyuria, number of participants (esketamine 56 mg, N = 20): 2
Sedation, % of participants (esketamine 56 mg, N = 20): (10) %
Sedation, number of participants (esketamine 56 mg, N = 20): 2
Throat irritation, number of participants (esketamine 56 mg, N = 20): 0
Total with events, % of participants (esketamine 56 mg, N = 20): (80) %
Total with events, number of participants (esketamine 56 mg, N = 20): 16
Tunnel vision, number of participants (esketamine 56 mg, N = 20): 0
Vertigo, % of participants (esketamine 56 mg, N = 20): (5) %
Vertigo, number of participants (esketamine 56 mg, N = 20): 1
Vision blurred, number of participants (esketamine 56 mg, N = 20): 0
Dissociation, % of participants (esketamine 84 mg, N = 17): (24) %
Dissociation, number of participants (esketamine 84 mg, N = 17): 4
Dissociative disorder, % of participants (esketamine 84 mg, N = 17): (24) %
Dissociative disorder, number of participants (esketamine 84 mg, N = 17): 4
Dizziness, % of participants (esketamine 84 mg, N = 17): (47) %
Dizziness, number of participants (esketamine 84 mg, N = 17): 8
Dysgeusia, % of participants (esketamine 84 mg, N = 17): (29) %
Dysgeusia, number of participants (esketamine 84 mg, N = 17): 5
Feeling abnormal, % of participants (esketamine 84 mg, N = 17): (6) %
Feeling abnormal, number of participants (esketamine 84 mg, N = 17): 1
Headache, % of participants (esketamine 84 mg, N = 17): (18) %
Headache, number of participants (esketamine 84 mg, N = 17): 3
Hypersomnia, number of participants (esketamine 84 mg, N = 17): 0
Hypertension, % of participants (esketamine 84 mg, N = 17): (6) %
Hypertension, number of participants (esketamine 84 mg, N = 17): 1
Hypoesthesia oral, % of participants (esketamine 84 mg, N = 17): (12) %
Hypoesthesia oral, number of participants (esketamine 84 mg, N = 17): 2
Insomnia, number of participants (esketamine 84 mg, N = 17): 0
Nasal discomfort, % of participants (esketamine 84 mg, N = 17): (6) %
Nasal discomfort, number of participants (esketamine 84 mg, N = 17): 1
Nausea, % of participants (esketamine 84 mg, N = 17): (24) %
Nausea, number of participants (esketamine 84 mg, N = 17): 4
Oropharyngeal pain, % of participants (esketamine 84 mg, N = 17): (12) %
Oropharyngeal pain, number of participants (esketamine 84 mg, N = 17): 2
Polyuria, number of participants (esketamine 84 mg, N = 17): 0
Sedation, % of participants (esketamine 84 mg, N = 17): (6) %
Sedation, number of participants (esketamine 84 mg, N = 17): 1
Throat irritation, % of participants (esketamine 84 mg, N = 17): (12) %
Throat irritation, number of participants (esketamine 84 mg, N = 17): 2
Total with events, % of participants (esketamine 84 mg, N = 17): (88) %
Total with events, number of participants (esketamine 84 mg, N = 17): 15
Tunnel vision, % of participants (esketamine 84 mg, N = 17): (12) %
Tunnel vision, number of participants (esketamine 84 mg, N = 17): 2
Vertigo, % of participants (esketamine 84 mg, N = 17): (6) %
Vertigo, number of participants (esketamine 84 mg, N = 17): 1
Vision blurred, % of participants (esketamine 84 mg, N = 17): (12) %
Vision blurred, number of participants (esketamine 84 mg, N = 17): 2
Dissociation, % of participants (esketamine Total, N = 56): (20) %
Dissociation, number of participants (esketamine Total, N = 56): 11
Dissociative disorder, % of participants (esketamine Total, N = 56): (13) %
Dissociative disorder, number of participants (esketamine Total, N = 56): 7
Dizziness, % of participants (esketamine Total, N = 56): (36) %
Dizziness, number of participants (esketamine Total, N = 56): 20
Dysgeusia, % of participants (esketamine Total, N = 56): (18) %
Dysgeusia, number of participants (esketamine Total, N = 56): 10
Feeling abnormal, % of participants (esketamine Total, N = 56): (7) %
Feeling abnormal, number of participants (esketamine Total, N = 56): 4
Headache, % of participants (esketamine Total, N = 56): (21) %
Headache, number of participants (esketamine Total, N = 56): 12
Hypersomnia, % of participants (esketamine Total, N = 56): (4) %
Hypersomnia, number of participants (esketamine Total, N = 56): 2
Hypertension, % of participants (esketamine Total, N = 56): (5) %
Hypertension, number of participants (esketamine Total, N = 56): 3
Hypoesthesia oral, % of participants (esketamine Total, N = 56): (13) %
Hypoesthesia oral, number of participants (esketamine Total, N = 56): 7
Insomnia, % of participants (esketamine Total, N = 56): (4) %
Insomnia, number of participants (esketamine Total, N = 56): 2
Nasal discomfort, % of participants (esketamine Total, N = 56): (5) %
Nasal discomfort, number of participants (esketamine Total, N = 56): 3
Nausea, % of participants (esketamine Total, N = 56): (18) %
Nausea, number of participants (esketamine Total, N = 56): 10
Oropharyngeal pain, % of participants (esketamine Total, N = 56): (5) %
Oropharyngeal pain, number of participants (esketamine Total, N = 56): 3
Polyuria, % of participants (esketamine Total, N = 56): (4) %
Polyuria, number of participants (esketamine Total, N = 56): 2
Sedation, % of participants (esketamine Total, N = 56): (7) %
Sedation, number of participants (esketamine Total, N = 56): 4
Throat irritation, % of participants (esketamine Total, N = 56): (5) %
Throat irritation, number of participants (esketamine Total, N = 56): 3
Total with events, % of participants (esketamine Total, N = 56): (75) %
Total with events, number of participants (esketamine Total, N = 56): 42
Tunnel vision, % of participants (esketamine Total, N = 56): (4) %
Tunnel vision, number of participants (esketamine Total, N = 56): 2
Vertigo, % of participants (esketamine Total, N = 56): (7) %
Vertigo, number of participants (esketamine Total, N = 56): 4
Vision blurred, % of participants (esketamine Total, N = 56): (4) %
Vision blurred, number of participants (esketamine Total, N = 56): 2
Participants with adverse events leading to discontinuation of study drug (phase 2, double-blind phase): 5%
Adverse event dizziness, % of participants (phase 2, open-label phase): 38.6%
Adverse event dysgeusia, % of participants (phase 2, open-label phase): 22.8%
Adverse event headache, % of participants (phase 2, open-label phase): 14.0%
Adverse event nausea, % of participants (phase 2, open-label phase): 15.8%
Adverse event sedation, % of participants (phase 2, open-label phase): 10.5%
Participants reporting transient dissociative symptoms (phase 2, open-label phase): 24.6%
Participants with adverse events leading to discontinuation of study drug (phase 2, open-label phase): 2%
